{
  "source": "patent US20040002130A1",
  "about": "“Disruption of PQS synthesis using precursor analogs” (priority 2002, published 2004)",
  "key": {"[1]": {"test_system": "P. aeruginosa strain PAO1", "test": "Growth of cultures in the presence of methyl anthranilate", "format": "cell-based", "settings": "0, 0.25, 0.5, 1.0, and 1.5 mM methyl anthranilate", "protocol": "P. aeruginosa strain PAO1 was grown in the presence of increasing amounts of methyl anthranilate, and culture supernatants were extracted with ethyl acetate and separated on TLC plates. PQS was visualized under long-wave UV light and photographed to quantify PQS densitometrically. The amount of PQS present in the culture supernatant decreased as the concentration of methyl anthranilated increased, although the growth of the cultures was not affected by the presence of methyl anthranilate at the concentrations used in these experiments (0, 0.25, 0.5, 1.0, and 1.5 mM methyl anthranilate, with approximately 30% PQS being produced at 1.5 mM methyl anthranilate as compared to wild type bacateria)."}, "PQS production": {"test_system": "PQS production", "test": "Effect of methyl anthranilate on PQS production (TLC of culture supernatant extracts, densitometry)", "format": "cell-based, P. aeruginosa strain PAO1", "protocol": "Bacteria from frozen stocks were grown overnight on PTSB agar plates (Ohman, et al. (1980) J. Bacteriol. 142:836-842) at 37° C. Isolated colonies were used to inoculate 10 ml of PTSB which was then incubated for 18 hr at 37° C. with vigorous shaking. Cultures were diluted 1:100 into fresh media and grown for 24 hr as above. A 400 μl aliquot of each culture was mixed with 800 μl of acidified ethyl acetate (Pesci, et al. (1999) Proc. Natl. Acad. Sci. USA 96:11229-11234), vortexed vigorously for 30 sec, then centrifuged for 10 min at 16,000×g. The organic phase was transferred to a fresh tube, and the aqueous phase was re-extracted with an additional 800 μl of solvent. The organic phases were combined, dried to completion and the solute was dissolved in 200 μl of a 1:1 mix of acidified ethyl acetate:acetonitrile. An amount of extract derived from 5 μl of culture was loaded onto the TLC plate. TLC was performed with a silica gel 60 F254 TLC plate (EM Science) that had been soaked in 5% KH2PO4 and activated at 100° C. for one hour. […]\nP. aeruginosa strain PAO1 was grown in the presence of increasing amounts of methyl anthranilate, and culture supernatants were extracted with ethyl acetate and separated on TLC plates. PQS was visualized under long-wave UV light and photographed to quantify PQS densitometrically. […]"}},
  "data": [
    {"smiles": "COC(=O)c1ccccc1N", "note": "[methyl anthranilate]", "values": [
      {"measurement": "growth of the cultures", "setting": "[1]", "result": "not affected"},
      {"measurement": "PQS being produced as compared to wild type bacteria", "setting": "PQS production; 1.5 mM methyl anthranilate, strain PAO1 culture supernatant, densitometry of TLC under long-wave UV", "result": "approximately 30%"},
      {"measurement": "amount of PQS present in the culture supernatant", "setting": "PQS production; increasing methyl anthranilate concentration (0, 0.25, 0.5, 1.0, and 1.5 mM), strain PAO1", "result": "decreased"}
    ]}
  ]
}
